Test results published in article PMC8860565, “Molecular Insights into How the Dimetal Center in Dihydropyrimidinase Can Bind the Thymine Antagonist 5-Aminouracil: A Different Binding Mode from the Anticancer Drug 5-Fluorouracil” (Bioinorganic Chemistry and Applications, 2022).
Like-named read-outs stand apart in the source and are kept apart here.

Assays:
[1] = biological target: T1, Pseudomonas aeruginosa DHPase (PaDHPase) (Pseudomonas aeruginosa, UniProt Q9I676); details: read-out: Kd value of PaDHPase bound to 5-FU; wild-type PaDHPase ref 44; cited from earlier work
T1 construct: made in house; host or cells: Escherichia coli BL21 (DE3)
T1 sequence (Q9I676 whole entry): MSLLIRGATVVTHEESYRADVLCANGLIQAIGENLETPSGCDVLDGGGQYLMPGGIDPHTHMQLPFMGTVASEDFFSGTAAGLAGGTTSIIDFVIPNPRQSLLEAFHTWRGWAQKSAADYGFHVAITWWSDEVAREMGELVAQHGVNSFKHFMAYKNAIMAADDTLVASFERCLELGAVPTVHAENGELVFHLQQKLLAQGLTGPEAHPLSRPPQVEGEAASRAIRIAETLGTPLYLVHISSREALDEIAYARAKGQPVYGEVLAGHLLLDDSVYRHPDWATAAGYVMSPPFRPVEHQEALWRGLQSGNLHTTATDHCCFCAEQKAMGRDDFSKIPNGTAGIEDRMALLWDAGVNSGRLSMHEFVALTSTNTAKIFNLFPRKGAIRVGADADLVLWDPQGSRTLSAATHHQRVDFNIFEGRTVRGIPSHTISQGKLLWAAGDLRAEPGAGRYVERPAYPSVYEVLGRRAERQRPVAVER

[2] = test system: biphasic interphase-mitotic (IM) cells; design: method as in PMID 32328702; details: cited from earlier work
[3] = biological target: T1, Pseudomonas aeruginosa DHPase (PaDHPase); test: Fluorescence quenching titration of wild-type PaDHPase; format: binding
Procedure: (§1) Through the fluorescence quenching analysis, the Kd value of the purified PaDHPase was determined. An aliquot of 5-AU was added into the solution containing PaDHPase (0.8 μM) and 50 mM HEPES at pH 7.0. The decrease in the intrinsic fluorescence of PaDHPase was measured at 336 nm upon excitation at 279 nm and 25°C with a spectrofluorimeter (Hitachi F-2700; Hitachi High-Technologies, Japan). The Kd was obtained using the equation: ΔF = ΔFmax − Kd(ΔF/[5-AU]).
Prior to this study, whether 5-AU could bind to DHPase remained unknown. To confirm if PaDHPase is capable of binding 5-AU, we used the fluorescence quenching method to determine the binding ability of PaDHPase (Figure 4). Quenching is a complex formation process that decreases the fluorescence intensity of protein. […] When 5-AU was titrated into the PaDHPase solution, the intrinsic fluorescence of the protein was progressively quenched. Upon the addition of 300 μM 5-AU, the intrinsic fluorescence of PaDHPase was quenched by 87.3%.
(§2) Figure 4 Fluorescence titration of PaDHPase with 5-AU. (a) The fluorescence emission spectra of PaDHPase with 5-AU of different concentrations (0–300 μM). The decrease in intrinsic fluorescence of protein was measured at 336 nm upon excitation at 279 nm with a spectrofluorimeter. […] (b) The fluorescence emission spectra of PaDHPase-Y155A with 5-AU of different concentrations (0–300 μM). (c) The fluorescence emission spectra of PaDHPase-S289A with 5-AU. (d) The fluorescence emission spectra of PaDHPase-N337A with 5-AU. (e) The fluorescence emission spectra of PaDHPase-C318A with 5-AU. (f) The fluorescence emission spectra of Znα-PaDHPase with 5-AU. (g) An aliquot amount of 5-AU was added to the enzyme solution for determining the Kd. The Kd was obtained by the equation: ΔF = ΔFmax − Kd(ΔF/[5-AU]). Data points are an average of 2–3 determinations within 10% error.

PaDHPase-Y155A = biological target: T2, PaDHPase-Y155A (Pseudomonas aeruginosa, UniProt Q9I676, Y155A); test: Fluorescence quenching titration of PaDHPase-Y155A mutant; format: binding
T2 construct: made in house; host or cells: Escherichia coli BL21 (DE3) (stated for the wild type; mutants purified by the same protocol)
T2 sequence (Q9I676 whole entry Y155A): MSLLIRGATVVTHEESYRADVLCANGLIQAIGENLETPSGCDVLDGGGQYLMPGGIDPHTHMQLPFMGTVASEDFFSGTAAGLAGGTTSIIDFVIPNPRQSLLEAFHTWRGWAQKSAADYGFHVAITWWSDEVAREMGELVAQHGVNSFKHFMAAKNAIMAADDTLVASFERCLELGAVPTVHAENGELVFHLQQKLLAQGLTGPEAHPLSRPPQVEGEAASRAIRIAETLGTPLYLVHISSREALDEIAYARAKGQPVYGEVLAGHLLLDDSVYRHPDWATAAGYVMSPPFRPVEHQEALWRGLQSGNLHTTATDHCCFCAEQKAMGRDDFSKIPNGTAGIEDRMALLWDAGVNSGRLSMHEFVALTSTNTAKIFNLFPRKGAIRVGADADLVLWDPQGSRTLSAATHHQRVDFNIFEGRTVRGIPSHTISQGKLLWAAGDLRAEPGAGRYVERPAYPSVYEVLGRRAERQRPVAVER
Source text: (§3) The PaDHPase mutants were generated according to the QuikChange Site-Directed Mutagenesis kit protocol (Stratagene; La Jolla, CA, USA). The wild-type plasmid pET21b-PaDHPase was used as a template. The presence of the mutation was verified by DNA sequencing in each construct. The recombinant mutant proteins were purified using the protocol for the wild-type PaDHPase by Ni^2+-affinity chromatography (Table 1).
as §1, with “The Kd was obtained using the equation: ΔF = ΔFmax − Kd(ΔF/[5-AU]).” left out
as §2, with “(f) The fluorescence emission spectra of Znα-PaDHPase with 5-AU. (g) An aliquot amount of 5-AU was added to the enzyme solution for determining the Kd. The Kd was obtained by the equation: ΔF = ΔFmax − Kd(ΔF/[5-AU]). Data points are an average of 2–3 determinations within 10% error.” left out

PaDHPase-S289A = biological target: T3, PaDHPase-S289A (Pseudomonas aeruginosa, UniProt Q9I676, S289A); test: Fluorescence quenching titration of PaDHPase-S289A mutant; format: binding
T3 construct: made in house; host or cells: Escherichia coli BL21 (DE3) (stated for the wild type; mutants purified by the same protocol)
T3 sequence (Q9I676 whole entry S289A): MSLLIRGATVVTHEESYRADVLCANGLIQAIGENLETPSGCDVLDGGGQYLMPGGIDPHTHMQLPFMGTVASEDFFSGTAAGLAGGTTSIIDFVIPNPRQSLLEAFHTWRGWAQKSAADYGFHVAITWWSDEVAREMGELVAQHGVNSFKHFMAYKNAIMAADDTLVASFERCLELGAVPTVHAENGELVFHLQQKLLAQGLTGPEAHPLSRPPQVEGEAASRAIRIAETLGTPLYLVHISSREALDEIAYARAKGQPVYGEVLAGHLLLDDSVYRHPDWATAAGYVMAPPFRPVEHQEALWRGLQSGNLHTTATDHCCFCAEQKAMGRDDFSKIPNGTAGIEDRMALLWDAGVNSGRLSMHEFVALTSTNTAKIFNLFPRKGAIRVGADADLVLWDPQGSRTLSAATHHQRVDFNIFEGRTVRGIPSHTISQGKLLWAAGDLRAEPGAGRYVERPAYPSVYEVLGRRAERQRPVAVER
Source text: as §3, §1, §2
(§4) 5-AU interacts with the main chains of residues Ser289 and Asn337 and the side chain of residue Tyr155. To investigate the contribution of individual amino acid residues to 5-AU binding, alanine substitution mutants (Table 2) were constructed and analyzed by fluorescence quenching (Figures 4(b)–4(d)).

PaDHPase-N337A = biological target: T4, PaDHPase-N337A (Pseudomonas aeruginosa, UniProt Q9I676, N337A); test: Fluorescence quenching titration of PaDHPase-N337A mutant; format: binding
T4 construct: made in house; host or cells: Escherichia coli BL21 (DE3) (stated for the wild type; mutants purified by the same protocol)
T4 sequence (Q9I676 whole entry N337A): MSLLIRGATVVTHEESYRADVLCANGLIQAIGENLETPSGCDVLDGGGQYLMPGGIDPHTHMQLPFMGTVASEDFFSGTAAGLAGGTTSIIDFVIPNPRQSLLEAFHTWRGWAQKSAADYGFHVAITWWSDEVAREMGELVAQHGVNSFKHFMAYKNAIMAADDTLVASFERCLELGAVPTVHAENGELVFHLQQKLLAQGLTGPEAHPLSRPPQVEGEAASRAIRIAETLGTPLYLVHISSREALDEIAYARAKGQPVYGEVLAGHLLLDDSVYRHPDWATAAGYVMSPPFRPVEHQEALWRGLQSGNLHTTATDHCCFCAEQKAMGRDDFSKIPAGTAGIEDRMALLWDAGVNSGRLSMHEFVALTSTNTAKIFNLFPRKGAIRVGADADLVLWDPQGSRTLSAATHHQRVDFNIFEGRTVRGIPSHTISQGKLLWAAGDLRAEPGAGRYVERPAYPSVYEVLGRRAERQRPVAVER
Source text: as §3, §1, §2, §4

PaDHPase-C318A = biological target: T5, PaDHPase-C318A (Pseudomonas aeruginosa, UniProt Q9I676, C318A); test: Fluorescence quenching titration of PaDHPase-C318A mutant; format: binding
T5 construct: made in house; host or cells: Escherichia coli BL21 (DE3) (stated for the wild type; mutants purified by the same protocol)
T5 sequence (Q9I676 whole entry C318A): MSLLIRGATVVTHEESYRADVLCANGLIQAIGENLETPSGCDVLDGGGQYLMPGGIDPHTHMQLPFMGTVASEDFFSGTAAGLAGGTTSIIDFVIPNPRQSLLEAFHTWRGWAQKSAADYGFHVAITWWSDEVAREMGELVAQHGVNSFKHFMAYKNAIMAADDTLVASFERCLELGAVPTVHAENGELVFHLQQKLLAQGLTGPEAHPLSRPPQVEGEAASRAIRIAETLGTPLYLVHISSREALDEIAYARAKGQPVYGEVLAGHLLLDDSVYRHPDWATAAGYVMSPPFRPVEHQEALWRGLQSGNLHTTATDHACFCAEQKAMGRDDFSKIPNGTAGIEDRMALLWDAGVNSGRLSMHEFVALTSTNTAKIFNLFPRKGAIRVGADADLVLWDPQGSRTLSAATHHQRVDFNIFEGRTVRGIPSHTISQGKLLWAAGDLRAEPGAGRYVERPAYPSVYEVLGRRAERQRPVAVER
Source text: as §3, §1, §2
Structurally, Cys318 is involved in 5-FU [44] but not 5-AU. For comparison, the C318A mutant was also analyzed by fluorescence quenching (Figure 4(e)). […] The abilities of the wild-type PaDHPase and the C318A mutant to bind 5-AU are approximately equal. Thus, Cys318 is not essential for 5-AU binding.

[4] = biological target: T6, Znα-PaDHPase (mono-Zn PaDHPase) (Pseudomonas aeruginosa, UniProt Q9I676); test: Fluorescence quenching titration of mono-Zn PaDHPase; format: binding
T6 construct: made in house; host or cells: Escherichia coli BL21 (DE3)
T6 sequence (Q9I676 whole entry): as the sequence (Q9I676 whole entry) above
Procedure: The mono-Zn PaDHPase was prepared using the protocol described previously. Purified PaDHPase was dialyzed against a chelating buffer (50 mM MES, 50 mM EDTA, and 15 mM 8-HQSA, pH 6.5; Buffer B) at room temperature for 3 days. The resultant enzyme solution was then dialyzed against Buffer A.
as §1, §2
To confirm the role of Znβ in 5-AU binding and to compare the binding contribution with other mutant proteins (Table 3), we produced mono-Zn PaDHPase (Znα-PaDHPase) for binding analysis. […] The binding of 5-AU to Znα-PaDHPase was also analyzed by the fluorescence quenching method (Figure 4(f)). Upon the addition of 300 μM 5-AU, the intrinsic fluorescence of Znα-PaDHPase was quenched by 49.3%. The Kd value of Znα-PaDHPase for 5-AU binding was calculated to be 281.5 ± 9.0 μM from the titration curve (Figure 4(g)). Based on the Kd values, the strength of complex formation with 5-AU followed the following order: the wild-type enzyme ≈ C318A > N337A > Y155A ≈ S289A > Znα-PaDHPase (Table 3).

## O=c1[nH]cc(F)c(=O)[nH]1 [5-FU, 5-fluorouracil]
[1]
  Kd: 133 ± 8.5 µM
[2]
  induction of biphasic interphase-mitotic (IM) cells: no induction of IM cells was detected

## Nc1c[nH]c(=O)[nH]c1=O [5-AU, 5-aminouracil]
[3]
  Kd: 97.7 ± 2 µM
[3]; wild-type PaDHPase, 300 μM 5-AU, emission 336 nm, excitation 279 nm
  Quenching (%) of intrinsic fluorescence: 87.3%
[3]; wild-type PaDHPase, emission maximum before and after adding 5-AU
  λ max: From 336.5 to 343
[3]; wild-type PaDHPase, red shift on adding 5-AU
  λ em shift: ~6.5 nm
PaDHPase-Y155A
  Kd: 247 ± 4 µM
PaDHPase-Y155A; PaDHPase-Y155A, emission maximum before and after adding 5-AU
  λ max: From 336.5 to 342
PaDHPase-S289A
  Kd: 256 ± 3.2 µM
PaDHPase-S289A; PaDHPase-S289A
  λ em shift: 2.0 nm
PaDHPase-S289A; PaDHPase-S289A, emission maximum before and after adding 5-AU
  λ max: From 337 to 339
PaDHPase-N337A
  Kd: 192 ± 8 µM
PaDHPase-N337A; PaDHPase-N337A
  λ em shift: 3.5 nm
PaDHPase-N337A; PaDHPase-N337A, emission maximum before and after adding 5-AU
  λ max: From 336 to 339.5
PaDHPase-C318A
  Kd: 103 ± 3.1 µM
PaDHPase-C318A; PaDHPase-C318A
  λ em shift: 6.0 nm
PaDHPase-C318A; PaDHPase-C318A, emission maximum before and after adding 5-AU
  λ max: From 336 to 342
[4]
  Kd: 281 ± 9 µM
[4]; Znα-PaDHPase
  λ em shift: 1.5 nm
[4]; Znα-PaDHPase (mono-Zn), 300 μM 5-AU
  Quenching (%) of intrinsic fluorescence: 49.3%
[4]; Znα-PaDHPase, emission maximum before and after adding 5-AU
  λ max: From 335 to 336.5
[2]
  induction of biphasic interphase-mitotic (IM) cells: significantly induce biphasic interphase-mitotic (IM) cells
